Results taken from publication PMC8139662 (Journal of Virology, 2021).
Where “and” joins values, the source holds several entries; their conditions need not be identical. Identical values can stand only once. Like-named read-outs stand apart in the source and are kept apart here.

Key:
[1] = tested on: SARS-CoV-2 USA-WA1/2020; test: Time-of-drug-addition assay in A549+ACE2 cells; format: cell-based; conditions: A549+ACE2, USA-WA1/2020
[2] = tested on: SARS-CoV-2 USA-WA1/2020; format: cell-based; conditions: for protection from virus-induced CPE: at 1 μM (PF-00835231: 1 μM and above); for protection from ring syncytium formation (CPE): at 0.33 μM and above; for protection from ring syncytium formation (CPE) / overall number of infected foci: microscopy; for overall number of infected foci: A549+ACE2, drug treatment
[3] = tested on: SARS-CoV-2; conditions: Vero E6 cells; cited from earlier work
[4] = tested on: A549^+ACE2 cells
[5] = tested on: SARS-CoV-2 USA/NYU-VC-003/2020; format: cell-based
[6] = tested on: SARS-CoV-2 USA-WA1/2020; format: cell-based; conditions: for SARS-CoV-2 infectious titers in apical washes: 10 μM basolateral, washes every 12 h up to 72 h; for number of infected (N-expressing) cells: 10 μM, 72-h endpoint
[7] = tested on: BCi-NS1.1 cells; conditions: 48 h, dose range up to 10 μM
[8] = tested on: SARS-CoV-2; conditions: PF-00835231 with remdesivir, in vitro; cited from earlier work
[9] = tested on: panel of diverse coronavirus 3CL^pro; conditions: alpha-, beta- and gammacoronavirus 3CLpro panel; cited from earlier work
[10] = tested on: polarized human airway epithelial cultures (HAEC)
[11] = in vitro; conditions: human
[12] = tested on: COVID-19 patients; conditions: patients with more advanced infection, i.v.; cited from earlier work
[13] = PF-00835231 versus GC-376 set (Table 2)

SMILES | minimum treatment dose that led to undetectable infection levels [1] | protection from virus-induced CPE [2] | EC50 [3] | CC50 [4] | EC90 [5] | EC50 [5, 13] | SARS-CoV-2 infectious titers in apical washes [6] | number of infected (N-expressing) cells [6] | ATP levels (cell viability) [7] | protection from ring syncytium formation (CPE) ([2]; A549+ACE2) | overall number of infected foci [2] | effect on morphology of HAEC (histology) [10] | also measured
CC(C)C[C@H](NC(=O)OCc1ccccc1)C(=O)N[C@@H](CC1CCNC1=O)C(O)S(=O)(=O)[O-].[Na+] (stereo partly drawn) [GC-376, reference compound] | 10 µM | unable to protect cells from virus-induced CPE | 900 nM | > 10 µM | 2730 nM | 529 nM | – | – | – | – | – | – | EC90 [2]: 4.55 µM and 5.25 µM; number and size of viral foci ([2]; 1 μM, A549+ACE2): decreased the number and size of viral foci
COc1cccc2[nH]c(C(=O)N[C@@H](CC(C)C)C(=O)N[C@@H](C[C@@H]3CCNC3=O)C(=O)CO)cc12 [PF-00835231] | 3 µM | fully protected | 270 nM | > 10 µM | 591 nM and 1170 nM | 326 nM | viral titers below the limit of detection at most time points | the number of infected cells was significantly reduced | did not detect a decrease in ATP | fully protected | decreased the overall number of infected foci | Neither drug caused measurable adverse effects on the morphology of the cultures | change in antiviral efficacy when blocking MDR1 ([6]; […], HAEC, 0.025 or 0.5 μM PF-00835231): no changes in antiviral efficacy when blocking MDR1 activity; combination effect with remdesivir in inhibiting SARS-CoV-2 [8]: significant synergistic effects; inhibition of 3CLpro [9]: potent inhibition; change in antiviral efficacy when blocking MDR1 [2]: no changes in antiviral efficacy when blocking MDR1 activity; antiviral activity against SARS-CoV-2 [3]: high micromolar levels; effect of inhibiting MDR1 function on antiviral efficacy [3]: significantly increased antiviral efficacy; EC50 ([5]; PF-00835231 versus remdesivir set (Table 1), n = 3): 184 nM
CCC(CC)COC(=O)[C@H](C)N[P@](=O)(OC[C@H]1O[C@@](C#N)(c2ccc3c(N)ncnn23)[C@H](O)[C@@H]1O)Oc1ccccc1 [remdesivir, reference compound] | – | – | – | – | – | – | viral titers below the limit of detection at most time points | the number of infected cells was significantly reduced | caused a reduction in ATP levels compared to carrier control, albeit not statistically significantly | fully protected | decreased the overall number of infected foci | Neither drug caused measurable adverse effects on the morphology of the cultures | CC50 [11]: > 10 µM; effect on transepithelial resistance (TEER) over time [10]: negatively impacted TEER over time, albeit not statistically significantly compared to untreated cultures; patients with benefit [12]: 68%
